Results: ChEMBL document CHEMBL5233246, “CT1-3, a novel magnolol-sulforaphane hybrid suppresses tumorigenesis through inducing mitochondria-mediated apoptosis and inhibiting epithelial mesenchymal transition” (Eur J Med Chem, 2020)
Calls of active or inactive are those of the source. No cut-off for these calls is given here.

Assays:
U-251 = experiment: Antiproliferative activity against human U-251 cells assessed as reduction in cell viability incubated for 24 hrs by CCK-8 assay; type: functional, cell-based; details: U-251, 24 h
[1] = Antiproliferative activity against human […] cells assessed as reduction in cell viability incubated for 24 hrs by CCK-8 assay; type: functional, cell-based
[2] = Antiproliferative activity against human NCI-H1688 cells assessed as reduction in cell viability incubated for 24 hrs by CCK-8 assay; type: functional, cell-based; details: NCI-H1688, 24 h
NCI-H1650 [3] = experiment: Antiproliferative activity against human NCI-H1650 cells assessed as reduction in cell viability incubated for 24 hrs by CCK-8 assay; type: functional, cell-based; details: NCI-H1650, 24 h
NCI-H1299 = experiment: Antiproliferative activity against human NCI-H1299 cells assessed as reduction in cell viability incubated for 24 hrs by CCK-8 assay; type: functional, cell-based; details: NCI-H1299, 24 h
NCI-H460 [4] = experiment: Antiproliferative activity against human NCI-H460 cells assessed as reduction in cell viability incubated for 24 hrs by CCK-8 assay; type: functional, cell-based; details: NCI-H460, 24 h
MDA-MB-231 [5] = experiment: Antiproliferative activity against human MDA-MB-231 cells assessed as reduction in cell viability incubated for 24 hrs by CCK-8 assay; type: functional, cell-based; details: MDA-MB-231, 24 h
OVCAR-3 [6] = experiment: Antiproliferative activity against human OVCAR-3 cells assessed as reduction in cell viability incubated for 24 hrs by CCK-8 assay; type: functional, cell-based; details: OVCAR-3, 24 h
A549 [7] = experiment: Inhibition of colony formation in human A549 cells incubated for 48 hrs by Giemsa staining based microscopy; type: functional, cell-based
NCI-H1650 [8] = experiment: Inhibition of colony formation in human NCI-H1650 cells incubated for 48 hrs by Giemsa staining based microscopy; type: functional, cell-based
AGS = experiment: Inhibition of colony formation in human AGS cells incubated for 48 hrs by Giemsa staining based microscopy; type: functional, cell-based
LoVo [9] = experiment: Inhibition of colony formation in human LoVo cells incubated for 48 hrs by Giemsa staining based microscopy; type: functional, cell-based
SW480 = experiment: Inhibition of colony formation in human SW480 cells incubated for 48 hrs by Giemsa staining based microscopy; type: functional, cell-based
OVCAR-3 [10] = experiment: Inhibition of colony formation in human OVCAR-3 cells incubated for 48 hrs by Giemsa staining based microscopy; type: functional, cell-based
A549 [11] = experiment: Antitumor activity against human A549 cells xenografted in BALB/c mouse assessed as reduction in tumor growth at 20 mg/kg,ip measured after 28 days; type: functional, organism-based; details: time 28.0 day
MDA-MB-231 [12] = experiment: Antitumor activity against human MDA-MB-231 cells xenografted in BALB/c mouse assessed as tumor necrosis at 20 mg/kg,ip measured after 28 days; type: functional, organism-based; details: time 28.0 day
[13] = Toxicity in BALB/c mouse xenografted with human MDA-MB-231 cells assessed as liver pathological change at 20 mg/kg,ip measured after 28 days; type: organism-based; details: in vivo, 672 h, time 28 day
A549 [14] = experiment: Induction of apoptosis in human A549 cells assessed as viable cells at 10 uM incubated for 24 hrs by annexin V-FITC/propidium iodide staining based flow cytometry analysis (reference value: 95.2%); type: functional; details: read-out: Activity
A549 [15] = experiment: Induction of apoptosis in human A549 cells assessed as early apoptotic cells at 10 uM incubated for 24 hrs by annexin V-FITC/propidium iodide staining based flow cytometry analysis (reference value: 3.6%); type: functional
A549 [16] = experiment: Induction of apoptosis in human A549 cells assessed as necrotic cells at 10 uM incubated for 24 hrs by annexin V-FITC/propidium iodide staining based flow cytometry analysis (reference value: 0.4%); type: functional
NCI-H460 [17] = experiment: Induction of apoptosis in human NCI-H460 cells assessed as viable cells at 10 uM incubated for 24 hrs by annexin V-FITC/propidium iodide staining based flow cytometry analysis (reference value: 97.9%); type: functional; details: read-out: Activity
NCI-H460 [18] = experiment: Induction of apoptosis in human NCI-H460 cells assessed as late apoptotic cells at 10 uM incubated for 24 hrs by annexin V-FITC/propidium iodide staining based flow cytometry analysis (reference value: 0.4%); type: functional
LoVo [19] = experiment: Induction of apoptosis in human LoVo cells assessed as late apoptotic cells at 10 uM incubated for 24 hrs by annexin V-FITC/propidium iodide staining based flow cytometry analysis (reference value: 0.4%); type: functional
LoVo [20] = experiment: Induction of apoptosis in human LoVo cells assessed as necrotic cells at 10 uM incubated for 24 hrs by annexin V-FITC/propidium iodide staining based flow cytometry analysis (reference value: 0.3%); type: functional
NCI-H460 [21] = experiment: Induction of apoptosis in human NCI-H460 cells assessed as increase in ROS level at 10 uM incubated for 8 hrs by H2DCFDA staining based fluorescence microscopic assay; type: functional, cell-based
A549 [22] = experiment: Induction of apoptosis in human A549 cells assessed as reduction of mitochondrial membrane potential at 10 uM incubated for 8 hrs by JC-1 staining based fluorescence microscopic assay; type: functional, cell-based
NCI-H460 [23] = experiment: Induction of apoptosis in human NCI-H460 cells assessed as decrease in Bcl-2 protein expression level at 7.5 uM incubated for 24 hrs by western blot assay; type: functional, cell-based
NCI-H460 [24] = experiment: Induction of apoptosis in human NCI-H460 cells assessed as decrease in XIAP protein expression level at 7.5 uM incubated for 24 hrs by western blot assay; type: functional, cell-based
LoVo [25] = experiment: Induction of apoptosis in human LoVo cells assessed as increase in Bax protein expression level at 7.5 uM incubated for 24 hrs by western blot assay; type: functional, cell-based
NCI-H460 [26] = experiment: Induction of apoptosis in human NCI-H460 cells assessed as increase in JNK phosphorylation level at 7.5 uM incubated for 24 hrs by western blot assay; type: functional, cell-based
LoVo [27] = experiment: Induction of apoptosis in human LoVo cells assessed as increase in JNK phosphorylation at 7.5 uM incubated for 24 hrs by western blot assay; type: functional, cell-based
A549 [28] = experiment: Inhibition of cell migration in human A549 cells at 7.5 uM incubated for 24 hrs by crystal violet staining based transwell assay; type: functional
NCI-H460 [29] = experiment: Inhibition of cell migration in human NCI-H460 cells at 7.5 uM incubated for 24 hrs by crystal violet staining based transwell assay; type: functional
LoVo [30] = experiment: Inhibition of cell migration in human LoVo cells at 7.5 uM incubated for 24 hrs by crystal violet staining based transwell assay; type: functional
A549 [31] = experiment: Inhibition of cell invasion in human A549 cells at 7.5 uM incubated for 24 hrs by matrigel based transwell assay; type: functional
NCI-H460 [32] = experiment: Inhibition of cell invasion in human NCI-H460 cells at 7.5 uM incubated for 24 hrs by matrigel based transwell assay; type: functional
LoVo [33] = experiment: Inhibition of cell invasion in human LoVo cells at 7.5 uM incubated for 24 hrs by matrigel based transwell assay; type: functional
LoVo [34] = experiment: Inhibition of cell migration in human LoVo cells assessed as upregulation of E-cadherin protein expression at 7.5 uM incubated for 24 hrs by western blot analysis; type: functional, cell-based
NCI-H460 [35] = experiment: Inhibition of cell migration in human NCI-H460 cells assessed as downregulation of Snail protein expression at 7.5 uM incubated for 24 hrs by western blot analysis; type: functional, cell-based
LoVo [36] = experiment: Inhibition of cell migration in human LoVo cells assessed as downregulation of Snail protein expression at 7.5 uM incubated for 24 hrs by western blot analysis; type: functional, cell-based

**Q.** With `C=CCc1ccc(O)c(-c2cc(CC=C)ccc2OCC[S+]([O-])CCCCN=C=S)c1` (stereo not given) as the compound, how does the IC50 (U-251) read?
**A.** 7.75 µM

**Q.** What about the IC50 [1] of the same compound?
**A.** 9.56 µM

**Q.** What about the IC50 [2] of the same compound?
**A.** 12.8 µM

**Q.** And the IC50 (NCI-H1650 [3])?
**A.** 6.92 µM

**Q.** What about the IC50 (NCI-H1299) of the same compound?
**A.** 9.17 µM

**Q.** And the IC50 (NCI-H460 [4])?
**A.** 6.15 µM

**Q.** What about the IC50 (MDA-MB-231 [5]) of the same compound?
**A.** 7.48 µM

**Q.** What about the IC50 (OVCAR-3 [6]) of the same compound?
**A.** 5.34 µM

**Q.** What about the inhibition (A549 [7]) of the same compound?
**A.** Active

**Q.** And the inhibition (NCI-H1650 [8])?
**A.** Active

**Q.** What about the inhibition (AGS) of the same compound?
**A.** Active

**Q.** What about the inhibition (LoVo [9]) of the same compound?
**A.** Active

**Q.** And the inhibition (SW480)?
**A.** Active

**Q.** What about the inhibition (OVCAR-3 [10]) of the same compound?
**A.** Active

**Q.** What about the Activity (A549 [11]) of the same compound?
**A.** Active

**Q.** And the Activity (MDA-MB-231 [12])?
**A.** Active

**Q.** What about the Activity [13] of the same compound?
**A.** Non-Toxic

**Q.** What about the viability at 10 µM (A549 [14]) of the same compound?
**A.** 50.1%

**Q.** What about the Activity (A549 [15]) of the same compound?
**A.** 13.9%

**Q.** And the Activity (A549 [16])?
**A.** 10.3%

**Q.** And the viability at 10 µM (NCI-H460 [17])?
**A.** 15.3%

**Q.** What about the Activity (NCI-H460 [18]) of the same compound?
**A.** 72.9%

**Q.** And the Activity (LoVo [19])?
**A.** 23.3%

**Q.** What about the Activity (LoVo [20]) of the same compound?
**A.** 38%

**Q.** What about the Activity (NCI-H460 [21]) of the same compound?
**A.** Active

**Q.** What about the Activity (A549 [22]) of the same compound?
**A.** Active

**Q.** And the Activity (NCI-H460 [23])?
**A.** Active

**Q.** And the Activity (NCI-H460 [24])?
**A.** Active

**Q.** And the Activity (LoVo [25])?
**A.** Active

**Q.** And the Activity (NCI-H460 [26])?
**A.** Active

**Q.** And the Activity (LoVo [27])?
**A.** Active

**Q.** What about the inhibition (A549 [28]) of the same compound?
**A.** Active

**Q.** And the inhibition (NCI-H460 [29])?
**A.** Active

**Q.** And the inhibition (LoVo [30])?
**A.** Active

**Q.** And the inhibition (A549 [31])?
**A.** Active

**Q.** And the inhibition (NCI-H460 [32])?
**A.** Active

**Q.** What about the inhibition (LoVo [33]) of the same compound?
**A.** Active

**Q.** What about the inhibition (LoVo [34]) of the same compound?
**A.** Active

**Q.** What about the inhibition (NCI-H460 [35]) of the same compound?
**A.** Active

**Q.** What about the inhibition (LoVo [36]) of the same compound?
**A.** Active
